From BigSolDB 2.1

O=C(O)CCCC(=O)O
Settings	solubility (mole fraction)
in cyclohexanone, 295.35 K	0.17
in cyclohexanone, 299.35 K	0.184
in cyclohexanone, 303.65 K	0.198
in cyclohexanone, 307.75 K	0.228
in cyclohexanone, 311.85 K	0.251
in methanol, 287.05 K	0.204
in methanol, 295.55 K	0.239
in methanol, 299.15 K	0.256
in methanol, 302.85 K	0.274
in methanol, 306.95 K	0.294
in methanol, 310.15 K	0.316
in methanol, 313.45 K	0.34
in methanol, 317.15 K	0.37
in methanol, 321.15 K	0.403
in methanol, 324.85 K	0.436
in methanol, 328.95 K	0.472
